From PubChem BioAssay (NCI)
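Grown in 96-well plates, cells were treated for 48 hours with each compound at five concentrations. Insufficient inhibition: endpoint recorded as highest concentration tested. TGI denotes the concentration required for complete inhibition of growth.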

What was measured:
Assay in all cases: NCI anticancer screen, dose series, 48 h
[1] = system: BT-549 breast
[2] = system: CAKI-1 renal
[3] = system: CCRF-CEM leukemia
[4] = system: COLO 205 colon
[5] = system: DU-145 prostate
[6] = system: HCC-2998 colon
[7] = system: HL-60(TB) leukemia
[8] = system: HT29 colon
[9] = system: KM12 colon
[10] = system: LOX IMVI melanoma
[11] = system: MOLT-4 leukemia
[12] = system: NCI-H460 lung
[13] = system: OVCAR-8 ovarian
[14] = system: PC-3 prostate
[15] = system: SF-268 CNS
[16] = system: SF-295 CNS
[17] = system: SK-MEL-5 melanoma
[18] = system: SNB-19 CNS
[19] = system: SW-620 colon
[20] = system: U251 CNS

Measured: TGI

CCSc1nc(N2CCOCC2)c2cn[nH]c2n1
> 100 µM: all assays above

CC(=O)O[C@@H]1C=C(C)[C@H](CBr)O[C@@]2(C)CC[C@H](Br)C(C)(C)[C@H]12
> 100 µM: all assays above

CCOC(=O)/C(O)=C(/C=NC(=S)c1ccncc1)C(=O)OCC
97 µM: [18]
> 100 µM: all other assays above

Brc1ccc2c(-c3nc(-c4c[nH]c5ccc(Br)cc45)cs3)c[nH]c2c1
27.8 µM: [1]
16.1 µM: [20]
5.92 µM: [6]
7.06 µM: [4]
13 µM: [18]
5.22 µM: [10]
17.7 µM: [15]
8.19 µM: [9]
24.4 µM: [19]
> 27.7 µM: [3]
8.36 µM: [12]
14.5 µM: [2]
17.8 µM: [16]
12.3 µM: [17]
3.61 µM: [8]
8.42 µM: [11]
19.1 µM: [5]
23.2 µM: [7]
25.3 µM: [13]
17.9 µM: [14]

O=C(Nc1ccc2nc(-c3ccccc3)cn2c1)Oc1ccccc1
> 100 µM: all assays above

Clc1cccc(Cl)c1C1SCC2=Nc3ccccc3CN21 (stereo unspecified)
52.4 µM: [14]
48.1 µM: [9]
29.2 µM: [17]
41.1 µM: [10]
68.4 µM: [5]
25.8 µM: [18]
33.8 µM: [16]
27 µM: [4]
not listed: [8] | [13]
> 100 µM: all other assays above

CCOC(=O)N/N=C(/N)Cc1ccccc1
not listed: [8] | [20]
> 100 µM: all other assays above

C=C(C)[C@@H](C(=O)OC)N1C(=O)c2ccccc2C1=O
> 100 µM: all assays above

CO/N=C(\C(=O)Nc1cncs1)c1csc(NC(c2ccccc2)(c2ccccc2)c2ccccc2)n1
> 10 µM: all assays above

C=C1CC[C@@]2(OC1)OC1C[C@H]3[C@@H]4CC=C5C[C@@H](O)CC(OC6OCC(OC(=O)[C@@H](O)[C@@H](C)CC)C(OC(C)=O)C6OC6OC(C)C(O)C(O)C6O)[C@]5(C)[C@H]4CC[C@]3(C)C1[C@@H]2C (stereo partly specified)
4.12 µM: [15]
3.43 µM: [3]
3.27 µM: [16]
4.31 µM: [13]
4.35 µM: [5]
4.5 µM: [4]
3.54 µM: [11]
4.87 µM: [7]
3.67 µM: [10]
4.51 µM: [19]
3.16 µM: [14]
5.13 µM: [9]
7.85 µM: [2]
2.96 µM: [6]
3.21 µM: [20]
3.87 µM: [18]
> 10 µM: [1] | [8]
3.59 µM: [17]
3.32 µM: [12]

CCCCn1c(C)c(C(=O)OCC)c2cc(OCc3ccc(C(=O)Nn4c(C)ccc4C)cc3)c(Br)cc21
> 100 µM: all assays above
